The source made the active and inactive calls. The calls are words filed in the database; no cut-off is given here.
Assays:
H9c2 [1] = experiment: Upregulation of Ho-1 level in isoproterenol-induced rat H9c2 cells at 0.01 to 1 uM by Western blot analysis; type: functional, cell-based; settings: dose 0.01-1 µM
Mus musculus [2] = experiment: Cardioprotective activity against isoproterenol-induced myocardial injury in C57/6J mouse model assessed as reduction in eosinophil count at 15 mg/kg, ip pretreated with isoproterenol for 3 days followed by compound addition and measured after 3 days; type: functional, organism-based; settings: time 3.0 day
Mus musculus [3] = experiment: Cardioprotective activity against isoproterenol-induced myocardial injury in C57/6J mouse model assessed as reduction in CK value in serum at 15 mg/kg, ip pretreated with isoproterenol for 3 days followed by compound addition and measured after 3 days by automatic biochemical analysis; type: functional, organism-based; settings: time 3.0 day
[4] = Drug uptake in lysosomes of rat H9c2 cells assessed as time required for compound concentration in lysosomes to exceed the cell lysates by HPLC analysis; type: ADME, subcellular, Lysosome
Mus musculus [5] = experiment: Cardioprotective activity against isoproterenol-induced myocardial injury in C57/6J mouse model assessed as reduction in neutrophil ratio at 15 mg/kg, ip pretreated with isoproterenol for 3 days followed by compound addition and measured after 3 days; type: functional, organism-based; settings: time 3.0 day
H9c2 [6] = experiment: Upregulation of cytochrome-c level in isoproterenol-induced rat H9c2 cells at 0.01 to 1 uM by Western blot analysis; type: functional, cell-based; settings: dose 0.01-1 µM
H9c2 [7] = experiment: Inhibition of ROS production in isoproterenol-induced rat H9c2 cells assessed as reduction in DCF value at 0.1 uM by DCFH-DA staining based flow cytometry analysis (reference value: 371.9); type: functional
H9c2 [8] = experiment: Induction of autophagy in isoproterenol-induced rat H9c2 cells assessed as downregulation of P62 expression by Western blot analysis; type: functional, cell-based
H9c2 [9] = experiment: Induction of ATP production in isoproterenol-induced rat H9c2 cells at 0.1 micromol/L by fluorescence based analysis; type: functional; settings: dose 0.1 µmol/L
[10] = Metabolic stability in mouse liver microsomes assessed as parent compound remaining measured after 15 mins in presence of NADPH regenerating system by LC-MS/MS analysis; type: ADME, Microsome; settings: read-out: Stability
[11] = AUC infinity in male C57/6J mouse at 15 mg/kg, ip measured upto 24 hrs by LC-MS/MS analysis; type: ADME, organism-based; settings: in vivo
Mus musculus [12] = experiment: Cardioprotective activity against isoproterenol-induced myocardial injury in C57/6J mouse model assessed as suppression of mTORC1 overexpression at 15 mg/kg, ip pretreated with isoproterenol for 3 days followed by compound addition and measured after 3 days by immunohistochemistry analysis; type: functional, organism-based; settings: time 3.0 day
[13] = Toxicity in isoproterenol-induced male C57/6J mouse model assessed as recovery of growth rate at 15 mg/kg, ip pretreated with isoproterenol for 3 days followed by compound addition and measured after 3 days; type: organism-based; settings: in vivo, 72 h, time 3 day
H9c2 [14] = experiment: Cytotoxicity against isoproterenol-induced rat H9c2 cells assessed as cell viability at 0.001 to 1 uM under normoxia condition by CCK-8 method; type: toxicity, cell-based; settings: h9c2, 1 µM, dose 0.001-1 µM
H9c2 [15] = experiment: Downregulation of mTORC1 level in isoproterenol-induced rat H9c2 cells by Western blot analysis; type: functional, cell-based; settings: dose 0.01-1 µM
Mus musculus [16] = experiment: Cardioprotective activity against isoproterenol-induced myocardial injury in C57/6J mouse model assessed as appearance of clear cell boundaries in heart at 15 mg/kg, ip pretreated with isoproterenol for 3 days followed by compound addition and measured after 3 days by H and E staining based analysis; type: functional, organism-based; settings: time 3.0 day
[17] = Half life in male C57/6J mouse at 15 mg/kg, ip measured upto 24 hrs by LC-MS/MS analysis; type: ADME, organism-based; settings: in vivo
[18] = Metabolic stability in mouse liver microsomes assessed as half life measured upto 60 mins in presence of NADPH regenerating system by LC-MS/MS analysis; type: ADME, Microsome
[19] = Metabolic stability in mouse liver microsomes assessed as parent compound remaining measured after 30 mins in absence of NADPH regenerating system by LC-MS/MS analysis; type: ADME, Microsome; settings: read-out: Stability
Mus musculus [20] = experiment: Cardioprotective activity against isoproterenol-induced myocardial injury in C57/6J mouse model assessed as decrease in pericardial thickness at 15 mg/kg, ip pretreated with isoproterenol for 3 days followed by compound addition and measured after 3 days by H and E staining based analysis; type: functional, organism-based; settings: time 3.0 day
[21] = Tmax in male C57/6J mouse at 15 mg/kg, ip measured upto 24 hrs by LC-MS/MS analysis; type: ADME, organism-based; settings: in vivo
[22] = Permeability of compound in MDCK cells; type: ADME, cell-based, Canis lupus familiaris; settings: dog, read-out: permeability
Mus musculus [23] = experiment: Cardioprotective activity against isoproterenol-induced myocardial injury in C57/6J mouse model assessed as reduction in eosinophil ratio at 15 mg/kg, ip pretreated with isoproterenol for 3 days followed by compound addition and measured after 3 days; type: functional, organism-based; settings: time 3.0 day
[24] = Metabolic stability in mouse liver microsomes assessed as parent compound remaining measured after 45 mins in presence of NADPH regenerating system by LC-MS/MS analysis; type: ADME, Microsome; settings: read-out: Stability
[25] = Metabolic stability in mouse liver microsomes assessed as parent compound remaining measured after 45 mins in absence of NADPH regenerating system by LC-MS/MS analysis; type: ADME, Microsome; settings: read-out: Stability
[26] = Metabolic stability in mouse liver microsomes assessed as parent compound remaining measured after 0.5 mins in absence of NADPH regenerating system by LC-MS/MS analysis; type: ADME, Microsome; settings: read-out: Stability
H9c2 [27] = experiment: Induction of autophagy in isoproterenol-induced rat H9c2 cells assessed as increase in LC3-I to LC3-II conversion by confocal microscopy based analysis; type: functional, cell-based
[28] = Dose normalized AUClast in male C57/6J mouse at 15 mg/kg, ip measured upto 24 hrs by LC-MS/MS analysis; type: ADME, organism-based; settings: in vivo
H9c2 [29] = experiment: Induction of apoptosis in isoproterenol-induced rat H9c2 cells assessed as early apoptotic cells at 0.1 micromol/L by annexin V-FITC and PI staining based flow cytometry analysis (reference value: 10.37%); type: toxicity, cell-based; settings: h9c2, 0.1 µM, dose 0.1 µmol/L
[30] = Cmax in male C57/6J mouse at 15 mg/kg, ip measured upto 24 hrs by LC-MS/MS analysis; type: ADME, organism-based; settings: in vivo
[31] = Metabolic stability in mouse liver microsomes assessed as parent compound remaining measured after 30 mins in presence of NADPH regenerating system by LC-MS/MS analysis; type: ADME, Microsome; settings: read-out: Stability
Mus musculus [32] = experiment: Cardioprotective activity against isoproterenol-induced myocardial injury in C57/6J mouse model assessed as decrease in heart weight ratio at 15 mg/kg, ip pretreated with isoproterenol for 3 days followed by compound addition and measured after 3 days (reference value: 0.56 %); type: functional; parameters: scale not given: the % may be the effect or the level left; settings: time 3 day
Mus musculus [33] = experiment: Cardioprotective activity against isoproterenol-induced myocardial injury in C57/6J mouse model assessed as reduction in neutrophil count at 15 mg/kg, ip pretreated with isoproterenol for 3 days followed by compound addition and measured after 3 days; type: functional, organism-based; settings: time 3.0 day
[34] = Passive permeability in MDCK cells; type: ADME, cell-based, Canis lupus familiaris; settings: dog, read-out: permeability
[35] = Metabolic stability in mouse liver microsomes assessed as clearance measured upto 60 mins in presence of NADPH regenerating system by LC-MS/MS analysis; type: ADME, Microsome; settings: read-out: CLH
[36] = Apparent volume of distribution during terminal phase in male C57/6J mouse at 15 mg/kg, ip measured upto 24 hrs by LC-MS/MS analysis; type: ADME, organism-based; settings: in vivo, read-out: Vz/F
H9c2 [37] = experiment: Induction of autophagy in isoproterenol-induced rat H9c2 cells assessed as downregulation of PARP1 expression by Western blot analysis; type: functional, cell-based
[38] = AUClast in male C57/6J mouse at 15 mg/kg, ip measured upto 24 hrs by LC-MS/MS analysis; type: ADME, organism-based; settings: in vivo
[39] = Metabolic stability in mouse liver microsomes assessed as parent compound remaining measured after 60 mins in absence of NADPH regenerating system by LC-MS/MS analysis; type: ADME, Microsome; settings: read-out: Stability
[40] = Metabolic stability in mouse liver microsomes assessed as parent compound remaining measured after 0.5 mins in presence of NADPH regenerating system by LC-MS/MS analysis; type: ADME, Microsome; settings: read-out: Stability
H9c2 [41] = experiment: Induction of autophagy in isoproterenol-induced rat H9c2 cells transfected with GFP-tagged LC3 assessed as increase in number of green fluorescence by confocal microscopy analysis; type: functional, cell-based
Mus musculus [42] = experiment: Cardioprotective activity against isoproterenol-induced myocardial injury in C57/6J mouse model assessed as decrease in CK-MB level in serum at 15 mg/kg, ip pretreated with isoproterenol for 3 days followed by compound addition and measured after 3 days by automatic biochemical analysis; type: functional, organism-based; settings: time 3.0 day
Mus musculus [43] = experiment: Cardioprotective activity against isoproterenol-induced myocardial injury in C57/6J mouse model assessed as inhibition of collagen fiber proliferation at 15 mg/kg, ip pretreated with isoproterenol for 3 days followed by compound addition and measured after 3 days by masson staining based analysis; type: functional, organism-based; settings: time 3.0 day
[44] = Observed MRT(infinity) in male C57/6J mouse at 15 mg/kg, ip measured upto 24 hrs by LC-MS/MS analysis; type: ADME, organism-based; settings: in vivo
[45] = Metabolic stability in mouse liver microsomes assessed as parent compound remaining measured after 15 mins in absence of NADPH regenerating system by LC-MS/MS analysis; type: ADME, Microsome; settings: read-out: Stability
[46] = Apparent […] clearance in male C57/6J mouse at 15 mg/kg, ip measured upto 24 hrs by LC-MS/MS analysis; type: ADME, organism-based; settings: in vivo
H9c2 [47] = experiment: Induction of apoptosis in isoproterenol-induced rat H9c2 cells assessed as late apoptotic cells at 0.1 micromol/L by annexin V-FITC and PI staining based flow cytometry analysis (reference value: 11.49%); type: toxicity, cell-based; settings: h9c2, 0.1 µM, dose 0.1 µmol/L
H9c2 [48] = experiment: Cytotoxicity against rat H9c2 cells assessed as cell viability at 0.001 to 50 uM under normoxia condition by CCK-8 method; type: toxicity, cell-based; settings: h9c2, 50 µM, dose 0.001-50 µM
Mus musculus [49] = experiment: Cardioprotective activity against isoproterenol-induced myocardial injury in C57/6J mouse model assessed as effect on cTNI level in serum at 15 mg/kg, ip pretreated with isoproterenol for 3 days followed by compound addition and measured after 3 days by automatic biochemical analysis; type: functional, organism-based; settings: time 3.0 day
Mus musculus [50] = experiment: Cardioprotective activity against isoproterenol-induced myocardial injury in C57/6J mouse model assessed as reduction in pericardial thickness at 15 mg/kg, ip pretreated with isoproterenol for 3 days followed by compound addition and measured after 3 days by masson staining based analysis; type: functional, organism-based; settings: time 3.0 day
[51] = Metabolic stability in mouse liver microsomes assessed as parent compound remaining measured after 60 mins in presence of NADPH regenerating system by LC-MS/MS analysis; type: ADME, Microsome; settings: read-out: Stability
Mus musculus [52] = experiment: Cardioprotective activity against isoproterenol-induced myocardial injury in C57/6J mouse model assessed as reduction in cardiac swelling size at 15 mg/kg, ip pretreated with isoproterenol for 3 days followed by compound addition and measured after 3 days (reference value: 5.15 millimeter); type: functional; settings: time 3 day

CCC(CC)O[C@@H]1C=C(C(=O)OCCN2CCOCC2)C[C@H](N)[C@H]1NC(C)=O
Activity (H9c2 [1]): Active
Activity (Mus musculus [2]): Active
Activity (Mus musculus [3]): Active
Time [4]: 3.43 min
Activity (Mus musculus [5]): Active
Activity (H9c2 [6]): Active
Activity (H9c2 [7]): 203.6
Activity (H9c2 [8]): Active
Activity (H9c2 [9]): 48.9 nmol/mg
remaining at 0.25 h [10]: 89.9%
AUC(0-inf) [11]: 2100 ng·h/mL
Activity (Mus musculus [12]): Active
Activity [13]: Non-Toxic
Activity (H9c2 [14]): Non-Toxic
Activity (H9c2 [15]): Dose-Dependent Effect
Activity (Mus musculus [16]): Active
half-life [17]: 2.37 h
half-life [18]: 3.07 h
remaining at 0.5 h [19]: 109%
Activity (Mus musculus [20]): Active
Tmax [21]: 0.25 h
Papp [22]: 44 ×10⁻⁶ cm/s
Activity (Mus musculus [23]): Active
remaining at 0.75 h [24]: 83%
remaining at 0.75 h [25]: 104%
remaining at 0.5 min [26]: 100%
Activity (H9c2 [27]): Active
AUClast/dose [28]: 139 kg·ng·h/mL/mg
Activity (H9c2 [29]): 6.07%
Cmax [30]: 2380 ng/mL
remaining at 0.5 h [31]: 83.9%
Activity (Mus musculus [32]): 0.46%
Activity (Mus musculus [33]): Active
Papp [34]: > 20 ×10⁻⁶ cm/s
microsomal CLint [35]: 7.53 µL/min/mg
Vd/F [36]: 24 L/kg
Activity (H9c2 [37]): Active
AUC(0-t) at 24 h [38]: 2080 ng·h/mL
remaining at 1 h [39]: 97.2%
remaining at 0.5 min [40]: 100%
Activity (H9c2 [41]): Active
Activity (Mus musculus [42]): Active
Activity (Mus musculus [43]): Active
MRT inf [44]: 1.01 h
remaining at 0.25 h [45]: 106%
CL/F [46]: 120 mL/min/kg
Activity (H9c2 [47]): 0.15%
Activity (H9c2 [48]): Non-Toxic
Activity (Mus musculus [49]): Active
Activity (Mus musculus [50]): Active
remaining at 1 h [51]: 77.2%
Activity (Mus musculus [52]): 4.35 mm
